Series [1] is described as follows: Brain penetration experiment. The conditions noted are these: mouse, ip, 5 mg/kg. The series is classed as in vivo, mice.
The test system of series [2] is CRL-8155 human lymphocytic cells. Conditions: CRL-8155 cell line, 48 hours.
In series [3] the test system is Type I RH strain T. gondii.
Series [4] relates to panel of ∼80 diverse human kinases. The conditions noted are these: read-out: IC50s of the kinases inhibited below 1 μM; three of the 80 kinases.

As to `CCOc1ccc2cc(-c3nn(C(C)(C)C)c(N)c3C(N)=O)cnc2c1` [Compound 1], the Kp in series [1] was 0.158. In series [2], this compound gave a cytotoxicity of more than 30 µM. For the same compound, the “T. gondii infection, peritoneal parasite count (in words)” value in series [3] (po for 5 days, twice daily) is “significantly reduced T. gondii infection”.

`CCOc1ccc2cc(-c3nn(CC4CC4)c(N)c3C(N)=O)cnc2c1` [Compound 6] registered a cytotoxicity in series [2] of more than 40 µM. As to `CCOc1ccc2cc(-c3nn(C4CCC4)c(N)c3C(N)=O)cnc2c1` [Compound 7], the cytotoxicity in series [2] was more than 40 µM. With `CCOc1ccc2cc(-c3nn(C4CCCC4)c(N)c3C(N)=O)cnc2c1` [Compound 8], the cytotoxicity in series [2] is more than 40 µM. Compound `CCOc1ccc2cc(-c3nn(C4CCCCCC4)c(N)c3C(N)=O)cnc2c1` [Compound 11] returned a cytotoxicity in series [2] of more than 40 µM. Consider `CCOc1ccc2cc(-c3nn(CC(C)(C)CO)c(N)c3C(N)=O)cnc2c1` [Compound 16], for which the cytotoxicity in series [2] was more than 40 µM. For `CCOc1ccc2cc(-c3nn(C(C)(C)C)c(N)c3C(N)=O)ccc2n1` [Compound 17], the cytotoxicity in series [2] is more than 40 µM. The same measure, in the same setting: as for `CCOc1ccc2cc(-c3nn(CC4CC4)c(N)c3C(N)=O)ccc2n1` [Compound 19], the figure is more than 40 µM. In series [2], `CCOc1ccc2cc(-c3nn(CC(C)(C)CO)c(N)c3C(N)=O)ccc2n1` [Compound 22] gave a cytotoxicity of more than 40 µM.

In series [2], `CC(C)(C)n1nc(-c2cnc3cc(F)ccc3c2)c(C(N)=O)c1N` [Compound 23] showed a cytotoxicity of more than 40 µM. Compound `COc1ccc2cc(-c3nn(C(C)(C)C)c(N)c3C(N)=O)cnc2c1` [Compound 28] yielded a cytotoxicity in series [2] of more than 40 µM. The same measure, in the same setting: as for `CC(C)Oc1ccc2cc(-c3nn(C(C)(C)C)c(N)c3C(N)=O)cnc2c1` [Compound 30], the figure is more than 40 µM.

On to `CCCOc1ccc2cc(-c3nn(C(C)(C)C)c(N)c3C(N)=O)cnc2c1` [Compound 31], for which, in series [2], the cytotoxicity was more than 40 µM. For `CC(C)(C)n1nc(-c2cnc3cc(OCC4CC4)ccc3c2)c(C(N)=O)c1N` [Compound 32], the cytotoxicity in series [2] was more than 40 µM.

In series [2], `CC(C)(C)n1nc(-c2ccc3nc(OC4CC4)ccc3c2)c(C(N)=O)c1N` [Compound 35] showed a cytotoxicity of more than 40 µM. Further, the “T. gondii in the peritoneal fluid (in words)” value in series [3] (20 mg/kg) is listed as “eliminated T. gondii from the peritoneal fluid”. Besides, the “death of treated mice” value in series [3] (50 mg/kg group, po) is given as “one mouse in the 35, 50 mg/kg group died on the fifth day of treatment”. For the same compound, the IC50 in series [4] fell in the range of 200 to 500 nM. In series [2], `CC(C)(C)n1nc(-c2ccc3nc(OC4CCC4)ccc3c2)c(C(N)=O)c1N` [Compound 37] showed a cytotoxicity of more than 40 µM.

The values are drawn from publication PMC4677665 (ACS Medicinal Chemistry Letters, 2015).
